Results from US10584105B2, “Immunoproteasome inhibitor analogs” (The Regents of the University of California, priority 2016, dated 2020).

Key:
[1] = system: SK—N—SH neuroblastoma cells; test: Cell viability assay (MTS), SK—N—SH neuroblastoma cells; assay type: cell-based, human; conditions: for effect on viability of SK—N—SH cells: highest concentration tested (1 μM), 24 hours exposure
Procedure: (§1) (A) MYCN2, (B) SK—N—Be(2)c, and (C) SK—N—SH neuroblastoma cells were treated with 1 (NAM-105), 5 (NAM-93), or 6 (NAM-95) for 24 hours at three different concentrations (0.01, 0.1, and 1 μM). Bortezomib (BTZ) was included as a control. Cell viability was measured using the MTS reagent as described in the Methods section. Data shown are representative of two independent experiments, each performed in triplicate wells (n=6).
(§2) To determine the effect of the thiasyrbactins proteasome inhibitors on the viability of cancer cells, three different human neuroblastoma (NB) cell lines were used. BTZ was included as a control. SK—N—Be2c, SK—N—SH cells (ATCC, Manassas, Va.) and MYCN2 cells were plated overnight in RPMI media containing 10% heat-inactivated fetal bovine serum (FBS) (Invitrogen, Carlsbad, Calif., USA), supplemented with penicillin (100 U/ml) and streptomycin (100 μg/ml). Cells were cultured at 37° C. in a humidified atmosphere containing 5% CO2 and treated with 0.01, 0.1 and 1 μM proteasome inhibitor for 24 hours. Cell viability was determined using the Cell Titer 96 AQueous One Cell Proliferation Assay (Promega) reagent MTS by measuring absorbance at 490 nm using a Multi-Mode Synergy plate reader as Ibarra-Rivera et al. Assays were done in duplicate with triplicate wells of treatment per experiment (n=6). Data were expressed as the average cell viability relative to untreated control cells using Microsoft Excel™.

[2] = system: MYCN2 neuroblastoma cells; test: Cell viability assay (MTS), MYCN2 neuroblastoma cells; assay type: cell-based, human; conditions: for effect on viability of MYCN2 cells: highest concentration tested (1 μM), 24 hours exposure
Procedure: as §1, §2

[3] = target: T1, immunoproteasome from human peripheral blood mononuclear cells (PBMCs), CT-L (β5) activity (Homo sapiens, UniProt P20618+P28062); test: In vitro proteasome activity assay, immunoproteasome, CT-L (β5); assay type: biochemical; conditions: for effect on CT-L (chymotrypsin-like) activity of the immunoproteasome (FIG. 5): 1.0 μM, 2 hours; for effect on CT-L activity of the immunoproteasome: at ≤10 μM
T1 construct: purchased Boston Biochem; host or cells: human peripheral blood mononuclear cells (native, purified)
Procedure: (§3) To determine the anti-proteasome activity of the thiasyrbactins in the in vitro environment, three catalytic activities (β1, β2, β5) of the proteasome were measured as described in Ibarra-Rivera et al., Tetrahedron 67:9950-6 (2011)). […] Purified 20S constitutive proteasome from human erythrocytes or immunoproteasome from human peripheral blood mononuclear cells (PBMCs) (Boston Biochem, Cambridge, Mass.) and luminogenic substrates Z-LRR-Glo, Z-nLPnLD-Glo, and Suc-LLVY-Glo (Promega, Fitchburg, Wis.) specific for the β1, β2, and β5 (also referred to as T-L, C-L, and CT-L) catalytic subunit activities, respectively, were used. Briefly, 2.2 ng/μL of constitutive proteasome and immunoproteosome were incubated with increasing concentration of proteasome inhibitor (0 to 10 μM) in 10 mM HEPES, pH 7.3, for two hours at 37° C. Equal volume of the appropriate luminogenic substrate was added to each reaction and luminescence was measured 10 minutes later using a Multi-Mode Synergy (Biotek, Inc., Winooski, Vt.) plate reader. Assays were done in triplicate (n=3). The Ki-50 values for each catalytic activity were determined for each of the inhibitors using Graphpad Prism 5 software (La Jolla, Calif.) and averaged using Microsoft Excel (Redmond, Wash.).
The thiasyrbactins were evaluated for their ability to inhibit each of the catalytic subunits of the constitutive and immunoproteasomes as well as for cytotoxic activity against neuroblastoma cancer cells. To test the inhibitory activity of 1 (NAM-105), 5 (NAM-93), and 6 (NAM-95), an in vitro assay was performed to test the effect of the thiasyrbactins on the three sub-catalytic activities (i.e., the CT-L, C-L, and T-L activities) of the constitutive proteasome and the immunoproteasome (Table 5).

[4] = target: T2, immunoproteasome from human peripheral blood mononuclear cells (PBMCs), T-L (β2) activity (Homo sapiens, UniProt P40306+P49720); test: In vitro proteasome activity assay, immunoproteasome, T-L (β2); assay type: biochemical; conditions: 1 μM
T2 construct: purchased Boston Biochem; host or cells: human peripheral blood mononuclear cells (native, purified)
Procedure: as §3, with “Briefly, 2.2 ng/μL of constitutive proteasome and immunoproteosome were incubated with increasing concentration of proteasome inhibitor (0 to 10 μM) in 10 mM HEPES, pH 7.3, for two hours at 37° C.” left out, “Assays were done in triplicate (n=3).” left out
(§4) The thiasyrbactins were evaluated for their ability to inhibit each of the catalytic subunits of the constitutive and immunoproteasomes as well as for cytotoxic activity against neuroblastoma cancer cells. […]

[5] = system: ARD multiple myeloma (MM) cells; test: Cell viability (MTS), ARD multiple myeloma cells; assay type: cell-based; conditions: Homo sapiens, 24 hours, MTS assay, N=3, read-out: IC-50 cell viability ARD cells
Procedure: (§5) N=3. Cells were incubated for 24 hours in the presence of 1 (NAM-105), 5 (NAM-93), 6 (NAM-95) or DMSO (control) and cell viability measured using the MTS assay. IC-50s for ARD cells are 4.085±0.865 μM (5, NAM-93), N/A (6, NAM-95), and 1.673±0.337 μM (1, NAM-105). IC-50 for U266 cells are 3.308±0.916 μM (5, NAM-93), N/A (6, NAM-95), and 1.474±0.577 μM (1, NAM-105). N/A; not applicable (50% inhibition not reached at tested concentrations).

[6] = system: SK—N—Be(2)c neuroblastoma cells; test: Cell viability assay (MTS), SK—N—Be(2)c neuroblastoma cells; assay type: cell-based, human; conditions: highest concentration tested (1 μM), 24 hours exposure
Procedure: as §1
as §2, with “Cells were cultured at 37° C. in a humidified atmosphere containing 5% CO2 and treated with 0.01, 0.1 and 1 μM proteasome inhibitor for 24 hours.” left out

[7] = target: T3, immunoproteasome from human peripheral blood mononuclear cells (PBMCs), C-L (β1) activity (Homo sapiens, UniProt P28065); test: In vitro proteasome activity assay, immunoproteasome, C-L (β1); assay type: biochemical
T3 construct: purchased Boston Biochem; host or cells: human peripheral blood mononuclear cells (native, purified)
Procedure: as §3, with “Briefly, 2.2 ng/μL of constitutive proteasome and immunoproteosome were incubated with increasing concentration of proteasome inhibitor (0 to 10 μM) in 10 mM HEPES, pH 7.3, for two hours at 37° C.” left out, “Assays were done in triplicate (n=3).” left out
as §4

[8] = system: U266 multiple myeloma (MM) cells; test: Cell viability (MTS), U266 multiple myeloma cells; assay type: cell-based; conditions: Homo sapiens, U-266; 24 hours, MTS assay, N=3; read-out: IC-50 cell viability U266 cells
Procedure: as §5

[9] = target: T4, 20S constitutive proteasome from human erythrocytes, CT-L (β5) activity (Homo sapiens, UniProt P20618+P28074); test: In vitro proteasome activity assay, constitutive proteasome, CT-L (β5); assay type: biochemical; conditions: 1 μM
T4 construct: purchased Boston Biochem; host or cells: human erythrocytes (native, purified)
Procedure: as §3, with “Briefly, 2.2 ng/μL of constitutive proteasome and immunoproteosome were incubated with increasing concentration of proteasome inhibitor (0 to 10 μM) in 10 mM HEPES, pH 7.3, for two hours at 37° C.” left out, “Assays were done in triplicate (n=3).” left out
as §4

Row | Compound | effect on CT-L (chymotrypsin-like) activity of the immunoproteasome (FIG. 5) [3] | effect on CT-L activity of the immunoproteasome [3] | inhibition vs. the trypsin-like activity of the immunoproteasome (screen, FIG. 5) [4] | IC50 [5] | effect on viability of SK—N—SH cells [1] | effect on viability of MYCN2 cells [2] | effect on viability of SK—N—Be(2)c cells [6] | effect on C-L activity of the immunoproteasome [7] | IC50 [8] | also measured
1 | CC(C)C[C@H](NC(=O)[C@H](Cc1ccccc1)NC(=O)c1cnccn1)B(O)O [BTZ, bortezomib, reference compound] | – | – | – | – | – | – | – | – | – | cytotoxic effects in SK—N—SH cells ([1]; 0.1-1 μM, 24 hours): strong cytotoxic effects; cytotoxic effects in MYCN2 cells ([2]; 0.1-1 μM, 24 hours): strong cytotoxic effects
2 | CC(C)Cc1ccc([C@H](C)C(=O)N[C@H](C(=O)N[C@H]2CSCCNC(=O)/C=C/[C@H](C)NC2=O)C(C)C)cc1 [Compound 5, (S)-2-((S)-2-(4-Isobutylphenyl)propanamido)-3-methyl-N-((8S,11R,E)-8-methyl-5,10-dioxo-1-thia-4,9-diazacyclododec-6-en-11-yl)butanamide] | stimulate | no effect | good inhibition | 4.08 ± 0.865 µM | minimal effects | minimal effects | minimal effects | no effect | 3.31 ± 0.916 µM | –
3 | CC(C)[C@H](NC(=O)c1cnccn1)C(=O)N[C@H]1CSCCNC(=O)/C=C/[C@H](C)NC1=O [Compound 6, N—((S)-3-Methyl-1-(((8S,11R,E)-8-methyl-5,10-dioxo-1-thia-4,9-diazacyclododec-6-en-11-yl)amino)-1-oxobutan-2-yl)pyrazine-2-carboxamide] | stimulate | – | good inhibition | – | – | – | – | – | – | –
4 | CCCCCCCCCCCCNC(=O)N[C@H](C(=O)N[C@H]1C[S+]([O-])CCNC(=O)/C=C/[C@H](C)NC1=O)C(C)C (stereo partly drawn) [Compound 2, (2S)-2-(3-Dodecylureido)-3-methyl-N-((8S,11R,E)-8-methyl-1-oxido-5,10-dioxo-1-thia-4,9-diazacyclododec-6-en-11-yl)butanamide] | – | – | – | – | minimal effects | minimal effects | minimal effects | – | – | –
5 | CCCCCCCCCCCCNC(=O)N[C@H](C(=O)N[C@H]1CSCCNC(=O)/C=C/[C@H](C)NC1=O)C(C)C [Compound 1, (S)-2-(3-Dodecylureido)-3-methyl-N-((8S,11R,E)-8-methyl-5,10-dioxo-1-thia-4,9-diazacyclododec-6-en-11-yl)butanamide] | – | no effect | – | 1.67 ± 0.337 µM | – | – | – | no effect | 1.47 ± 0.577 µM | activity vs. the chymotrypsin-like activity of the constitutive proteasome (screen, FIG. 5) [9]: greatest activity; viability of SK—N—SH cells, % of control (DMSO) ([1]; 24 hours, of control (DMSO)): 30-50%; viability of MYCN2 cells, % of control (DMSO) ([2]; 24 hours, of control (DMSO)): 30-50%
